{"source": "patent US4228158A", "about": "“Synthetic peptides having pituitary growth hormone releasing activity” (priority 1979, dated 1980)", "system": "pituitaries removed from 20 day old female rats", "assay": "In vitro growth hormone release study (incubated rat pituitaries, GH radioimmunoassay)", "type": "cell-based", "details": "two pituitaries in 1 ml lactated Ringer's, 36° C., ± SEM", "protocol": "Female rats of the CD-1 strain were housed in a constant temperature room at 24° C. with 14 hours light and 10 hours darkness. The rats were fed Purina brand rat chow ab libitum.\nAll studies were started between 0800 and 1000 hours.\nPituitaries were removed from 20 day old female rats. Two pituitaries were incubated at 36° C. in 1 ml of lactated Ringer's solution in 10 ml polytetrafluoroethylene beakers in a Dubnoff Shaker (90 cycles/min.). The pituitaries were incubated a total of 4 hours (P1, P2, I3, and I4). After two successive one hour preincubation periods (P1, P2), the peptide was added to the incubation medium hourly for 2 hours (I3, I4).\nThis in vitro study was performed in triplicate and a standard radioimmunoassay of growth hormone present in the incubation medium was performed in duplicate. The hormonal activity was calculated as the difference (Δ) of growth hormone (GH) levels between I3, I4 and P2, i.e., (I3 -P2) and (I4 -P2). P values were calculated by Students' t test using six growth hormone values for each value recorded.\nThe growth hormone radioimmunoassay reagents were distributed by the National Institute of Arthritis and […] (NIAMDD) program. The growth hormone values were calculated in terms of nanograms (ng) of a rat standard with a growth hormone potency of 0.61 units/mg.", "note": "Non-standard residues stand in square brackets, D forms with d. Residues, ends and D or L forms follow the SMILES beside them.", "data": [{"compound": "CSCC[C@H](NC(=O)[C@H](Cc1ccccc1)NC(=O)[C@@H](Cc1c[nH]c2ccccc12)NC(=O)[C@@H](Cc1c[nH]c2ccccc12)NC(=O)[C@@H](N)Cc1ccc(O)cc1)C(N)=O", "note": "[H2 N-Tyr-D-Trp-D-Trp-Phe-Met-CONH2] (H-Y[dW][dW]FM-NH2)", "values": [{"measurement": "In vitro growth hormone release (ΔGH, I3-P2 and I4-P2)", "setting": "1μg peptide, P <0.001", "result": "1697 ± 222 ngΔGH/ml incubation medium"}, {"measurement": "In vitro growth hormone release (ΔGH, I3-P2 and I4-P2)", "setting": "20μg peptide, P <0.001", "result": "1530 ± 208 ngΔGH/ml incubation medium"}, {"measurement": "In vitro growth hormone release (ΔGH, I3-P2 and I4-P2)", "setting": "100μg peptide, P ~0.02", "result": "219 ± 113 ngΔGH/ml incubation medium"}]}]}
